Assay results reported in patent US10183015B2, “Heterocyclic compounds and methods of use” (Medivation Technologies LLC, priority 2015, dated 2019).
Where “and” joins values, the source holds several entries; their conditions need not be identical. Identical values can stand only once.

What was measured:
[1] = tested on: 60% high fat Paigen diet induced NASH mouse model; assay: Short-term Paigen-diet NASH mouse model: liver Oil Red O staining; type: in vivo; conditions: 40 mg/kg p.o. (stopped after 4 administrations), 9 days of diet
[2] = 28-day repeat-dose toxicity study in healthy rats: plasma exposure (AUC24h); type: in vivo, rat; conditions: day 28
Procedure: In the repeat-dose toxicity study in rats (Compound #37P018), Compound #37 was given at 0 (vehicle control), 50, 100/75, and 200/150 mg/kg/day for 28 days; some animals from each dose group continued into a 28-day recovery period. After 28 days of treatment, liver neutral lipids from treated and control animals were analyzed with Oil Red O staining.
The more pronounced effects in female rats compared with male rats is consistent with the observed higher plasma exposure (>4-fold higher area under the curve over 24 hours [AUC24h]) at day 28 in females compared with males. Evidence of an effect of Compound #37 on leptin concentrations was also observed in female rats in a dose-dependent manner. As animals gain weight, leptin concentrations naturally increase due to its origin from adipose tissue. Female rats treated with Compound #37 had lower concentrations of leptin compared with the vehicle control group during the treatment period (day 4 and day 28), which was not observed after treatment termination and recovery (day 56) (FIG. 7).

[3] = tested on: HMGCoA; assay: Short-term Paigen-diet NASH mouse model: hepatic HMGCoA (HMG-CoAR) gene expression (RT-qPCR); type: in vivo; conditions: liver; for DDct: HMGCoA Dct relative to vehicle mean; for Dct: HMGCoA minus 18S; for 2DDct: HMGCoA relative expression to vehicle group, normalized to 18S; for HMGCoA: raw RT-qPCR value
Procedure: (§1) To investigate whether Compound #37 prevents the development of pathology associated with NASH and steatosis in an acute exploratory disease model, a study was conducted using a diet-induced acute liver steatosis model in mice. As described below, in this study, C57BL/6J mice were initiated on the Paigen diet and simultaneously treated with Compound #37 (5, 20, and 40 mg/kg/day) or vehicle control (20% HPβCD 10 mL/kg/day) by oral gavage for 21 days.
(§2) After acclimation, 8-week old male C57Bl/6J mice (Charles River) weighing about 25 g were randomized in 4 groups according their body weight and treated once daily around noon by oral gavage with vehicle, or Compound #37 at various for 21 days as follows: Group 1: vehicle-20% (2-hydroxypropyl)-β-cyclodextrin (HP-β-CD) (n=10); Group 2: Compound #37, 5 mg/kg (n=10) Group 3: Compound #37, 20 mg/kg (n=10) Group 4: Compound #37, 40 mg/kg (n=10). During the treatment period, body weight and food intake (measured over 24h) were measured 3 times per week and once a week, respectively. During the acclimation, all mice were fed a standard diet (Special Diets Services RM1 (E), product no. 801492) and tap water ad libitum. After the acclimation period, mice were fed until the end of the experiment with a 60% high fat Paigen diet (60 kcal % fat, 1.25% cholesterol, and 0.5% cholate; D11061901, Research Diet) and tap water ad libitum.
(§3) Gene expression analysis. Hepatic expression levels of genes involved in lipid metabolism (FAS, SREBP1, ACC1, SCD1), cholesterol metabolism (HMG-CoAR, LDLR), SREBP proteolysis (SCAP, INSIG1), ER stress (PERK), oxidative stress (NRF2), inflammation (MCP-1), and fibrosis (collagen 1α1) were quantified by RTqPCR. Expression level was normalized to 18S gene expression and relative expression to vehicle group was calculated with the […] method.

[4] = tested on: MCP-1; assay: DIN mouse model: hepatic MCP-1 levels; type: in vivo; conditions: 20 mg/kg; for MCP1: hepatic
Procedure: (§4) Male C57Bl/6J mice (8 weeks old) were housed in enriched ventilated cages (31×12.5×12.7 cm) throughout the experimental phase. Animals' cages litters were changed at least once a week. Animal were housed 5 per cage on inverted 12-hour light cycle (at 09:00 am lights off), 22±2° C. and 55±10% relative humidity. The acclimation period was 20 days. During the acclimation period, all mice were fed a standard diet (RM1 (E) 801492, SDS) and tap water ad libitum. After the acclimation period, mice were fed with the DIN diet (60% fat, cholesterol enriched) and fructose-enriched tap water ad libitum until the end of the experiment.
(§5) At 6 weeks of diet, mice were 4-hour fasted (09:00 am to 1:00 pm) and blood (150 μl/EDTA) was collected at 01:00 pm by retro-orbital bleeding under isoflurane anesthesia. Mice were then allocated in 2 homogenous groups (n=12/group) according to their plasma levels of ALT (average levels: 685U/L), AST (average levels: 627U/L) and HOMA-IR index (average value: 4.7), into 2 homogenous groups (see values at day 0 in Tables 15A and 15B ALT/AST and Tables 16A and 16B for HOMA-IR). Mice were then treated once daily by oral gavage with vehicle (Group 1) or Compound #37 at 20 mg/kg (Group 2) for 70 days.

[5] = tested on: PERK; assay: DIN mouse model: hepatic PERK gene expression; type: in vivo; conditions: liver, 20 mg/kg group
Procedure: as §3, §4, §5
Hepatic expression levels of genes involved in lipid (FAS, SREBP1, ACC1, SCD1), cholesterol metabolism (HMG-CoAR, LDLR), in SREBP proteolysis (SCAP, INSIG1), in ER stress (PERK), oxidative stress (NRF2), and inflammation (MCP-1) were not changed. However, expression of collagen 1α1, involved in liver fibrosis, was reduced by 66% in mice treated with Compound #37 (p<0.05 vs. vehicle).

[6] = tested on: ACC1; assay: Short-term Paigen-diet NASH mouse model: hepatic ACC1 gene expression (RT-qPCR); type: in vivo; conditions: liver, 21 days; for DDct: ACC1 Dct relative to vehicle mean; for Dct: ACC1 minus 18S; for 2DDct: ACC1 relative expression to vehicle group, normalized to 18S; for ACC1: raw RT-qPCR value
Procedure: as §1, §2, §3

[7] = Compound #37 5 mg/kg, group mean, n=10
[8] = Compound #37 5 mg/kg, individual animals, 5 mg/kg
[9] = Compound #37 20 mg/kg, group mean, n=6
[10] = Compound #37 20 mg/kg, individual animals, 20 mg/kg
[11] = individual animals, vs vehicle mean, 20 mg/kg
[12] = Compound #37 5 mg/kg, group mean, n=8

CC(C)Cc1cc(-c2nc(-c3ccc(NS(=O)(=O)C(F)(F)F)cc3Cl)cs2)ccn1 [Compound 37, N-(3-chloro-4-(2-(2-isobutylpyridin-4-yl)thiazol-4-yl)phenyl)-1,1,1-trifluoromethanesulfonamide]
Liver O red Oil staining, % labeling ([1]; group mean): 1.87% | Liver O red Oil staining, % labeling ([1]; individual animals): 2.53% and 2.54% and 1.12% and 1.28% | plasma exposure (AUC24h) in females compared with males [2]: > 4 fold | DDct [3, 7]: 0.21 | DDct [3, 8]: −0.39 and 0.32 and 0.09 and −0.08 and 0.87 and 0.63 and −0.03 and 0.10 and 0.35 and 0.20 | DDct [3, 9]: 0.33 | DDct [3, 10]: 0.57 and 1.06 and 0.58 and −0.40 and 0.77 and −0.64 | Dct [3, 7]: 13.1 | Dct [3, 8]: 12.48 and 13.19 and 12.96 and 12.79 and 13.74 and 13.5 and 12.84 and 12.97 and 13.22 and 13.07 | Dct [3, 9]: 13.2 | Dct [3, 10]: 13.44 and 13.93 and 13.45 and 12.47 and 13.64 and 12.23 | 2DDct [3, 7]: 0.89 | 2DDct [3, 8]: 1.31 and 0.80 and 0.94 and 1.05 and 0.55 and 0.64 and 1.02 and 0.93 and 0.78 and 0.87 | 2DDct [3, 9]: 0.88 | 2DDct [3, 10]: 0.67 (2×) and 0.48 and 1.32 and 0.58 and 1.55 | HMGCoA [3, 7]: 25.3 | HMGCoA [3, 8]: 25.94 and 26.3 and 24.57 and 26.14 and 25.77 and 26.85 and 24.44 and 24.76 and 24.36 and 24.19 | HMGCoA [3, 9]: 25.4 | HMGCoA [3, 10]: 26.35 and 26.22 and 25.65 and 25.5 and 25.13 and 23.49 | Hepatic MCP-1 levels reduction ([4]; 70 days, p<0.001 vs. vehicle): 70% | MCP1 ([4]; group mean, n 11): 1.7 pg/mg liver | MCP1 ([4]; individual animals): 1.34 pg/mg liver and 1.53 pg/mg liver and 0.60 pg/mg liver and 2.54 pg/mg liver and 1.76 pg/mg liver and 1.72 pg/mg liver and 1.42 pg/mg liver and 1.21 pg/mg liver and 1.78 pg/mg liver and 1.90 pg/mg liver and 2.59 pg/mg liver | PERK Dct ([5]; individual animals, normalised to 18S, 20 mg/kg): 14.23 and 14.41 and 16.11 and 14.89 and 14.95 and 14.18 and 14.85 and 14.3 and 15.75 and 16.07 and 12.9 | PERK 2^DDct [5, 11]: 1.2 and 1.06 and 0.33 and 0.76 and 0.73 and 1.24 and 0.78 and 1.15 and 0.42 and 0.34 and 3.02 | PERK DDct [5, 11]: −0.27 and −0.09 and 1.61 and 0.39 and 0.45 and −0.32 and 0.35 and −0.2 and 1.25 and 1.57 and −1.6 | PERK (Ct) ([5]; individual animals, 20 mg/kg): 26.78 and 26.96 and 28.95 and 27.32 and 27.3 and 26.77 and 26.58 and 26.81 and 27.25 and 27.62 and 25.25 | PERK 2^DDct ([5]; mean, n 11): 1.00 | PERK (Ct) ([5]; mean, n 11): 27.1 | PERK DDct ([5]; mean, n 11): 0.29 | PERK Dct ([5]; mean, n 11): 14.8 | DDct [6, 12]: 0.81 | DDct [6, 8]: 1.08 and 0.78 and 1.88 and 3.12 and −0.53 and −0.87 and 1.01 and 0.01 | DDct [6, 9]: 2.71 | DDct [6, 10]: 0.6 and 7.15 and 3.66 and 0.46 and 3.91 and 0.45 | Dct [6, 12]: 18.7 | Dct [6, 8]: 19 and 18.7 and 19.8 and 21.04 and 17.39 and 17.05 and 18.93 and 17.93 | Dct [6, 9]: 20.6 | Dct [6, 10]: 18.52 and 25.07 and 21.58 and 18.38 and 21.83 and 18.37 | 2DDct [6, 12]: 0.78 | 2DDct [6, 8]: 0.47 and 0.58 and 0.27 and 0.12 and 1.44 and 1.83 and 0.5 and 0.99 | 2DDct [6, 9]: 0.38 | 2DDct [6, 10]: 0.66 and 0.01 and 0.08 and 0.73 (2×) and 0.07 | ACC1 [6, 12]: 30.9 | ACC1 [6, 8]: 32.46 and 31.81 and 31.41 and 34.39 and 28.99 and 28.84 and 30.07 and 29.05 | ACC1 [6, 9]: 32.8 | ACC1 [6, 10]: 31.43 and 37.36 and 33.78 and 31.41 and 33.32 and 29.63
